Assay results from US8283478B2, “Process for preparation of sulfamide derivatives” (Janssen Pharmaceutica NV, priority 2005, dated 2012).

System: CF-1 male albino mice (MES-induced seizure)
Assay: Maximal Electroshock Test (MES), anticonvulsant activity
Assay type: in vivo
Conditions: for MES @ 300 mpk: (number of mice with full body tonic extension prevented)/(total number of mice tested): 300 mpk oral
Procedure: Anticonvulsant activity was determined using the MES test, run according to the procedure described in detail below. Swinyard E A, Woodhead J H, White H S, Franklin M R. Experimental selection, quantification, and evaluation of anticonvulsants. In Levy R H, et al., eds. Antiepileptic Drugs. 3rd ed. New York: Raven Press, 1989:85-102
CF-1 male albino mice (25-35 g) were fasted for 16 hours before testing. Mice were randomly selected into control and test groups, with the animals dosed with vehicle or test compound, at varying concentrations, respectively. On the study date, at 30 minutes prior to shock, the mice were orally dosed with vehicle (0.5% methylcellulose) or test compound (100-300 mg/kg). Seizures were induced by trans-corneal electric shock using a 60-Hz alternating current, 50 mA, delivered for 0.2 sec. The mice in the test groups were subjected to electrical stimulus at time intervals between 15 minutes and 4 hours following administration of test compound. […] The test was complete when the entire course of the convulsion has been observed (typically, less than 1 minute after electrical stimulation), and the mice were then immediately euthanized by carbon dioxide inhalation.
Abolition of the full body tonic extensor component of the seizure was taken as the endpoint of the test. […] The ED50 value of the test compound (calculated when appropriate) was the calculated dose required to block the hind limb tonic-extensor component of the MES-induced seizure in 50% of the rodents tested. A probit analysis was used to calculate the ED50 and 95% fiducial limits (FL).
Representative compounds of the present invention were tested according to the procedure described above, with results as listed in Table 3 below. Results are listed as (number of mice with full body tonic extension prevented)/(total number of mice tested) (@ a given time).

[1] = 100 mpk oral, 0.5 h after dosing

## Cn1cc(CNS(N)(=O)=O)c2ccccc21 [Compound 7, N-[(1-methyl-1H-indol-3-yl)methyl]-sulfamide]
100 mpk oral, time not stated
  MES @ 100 mpk (result in words): inactive
0.5 hr after dosing
  MES @ 300 mpk: (number of mice with full body tonic extension prevented)/(total number of mice tested): 5/5 (0.5 hr)
2 hr after dosing
  MES @ 300 mpk: (number of mice with full body tonic extension prevented)/(total number of mice tested): 0/5 (2 hr)
4 hr after dosing
  MES @ 300 mpk: (number of mice with full body tonic extension prevented)/(total number of mice tested): 0/5 (4 hr)

## NS(=O)(=O)NCc1csc2ccccc12 [Compound 1, N-(benzo[b]thien-3-ylmethyl)-sulfamide]
[1]
  MES @ 100 mpk: (number of mice with full body tonic extension prevented)/(total number of mice tested): 1/5 (0.5 h)
100 mpk oral, 2 h after dosing
  MES @ 100 mpk: (number of mice with full body tonic extension prevented)/(total number of mice tested): 3/5 (2 h)
100 mpk oral, 4 h after dosing
  MES @ 100 mpk: (number of mice with full body tonic extension prevented)/(total number of mice tested): 2/5 (4 h)

## NS(=O)(=O)NCc1csc2c(F)cccc12 [Compound 18, N-[(7-fluorobenzo[b]thien-3-yl)methyl]-sulfamide]
0.5 hr after dosing
  MES @ 300 mpk: (number of mice with full body tonic extension prevented)/(total number of mice tested): 0/3 (0.5 hr)
2 hr after dosing
  MES @ 300 mpk: (number of mice with full body tonic extension prevented)/(total number of mice tested): 2/3 (2 hr)
4 hr after dosing
  MES @ 300 mpk: (number of mice with full body tonic extension prevented)/(total number of mice tested): 0/3 (4 hr)

## NS(=O)(=O)NCc1csc2cccc(Br)c12 [Compound 17, N-[(4-bromobenzo[b]thien-3-yl)methyl]-sulfamide]
0.5 hr after dosing
  MES @ 300 mpk: (number of mice with full body tonic extension prevented)/(total number of mice tested): 0/3 (0.5 hr)
2 hr after dosing
  MES @ 300 mpk: (number of mice with full body tonic extension prevented)/(total number of mice tested): 0/3 (2 hr)
4 hr after dosing
  MES @ 300 mpk: (number of mice with full body tonic extension prevented)/(total number of mice tested): 1/3 (4 hr)

## Cc1oc2ccccc2c1CNS(N)(=O)=O [Compound 13, N-[(2-methyl-3-benzofuranyl)methyl]-sulfamide]
[1]
  MES @ 100 mpk: (number of mice with full body tonic extension prevented)/(total number of mice tested): 4/5 (0.5 h)
100 mpk oral, 2 h after dosing
  MES @ 100 mpk: (number of mice with full body tonic extension prevented)/(total number of mice tested): 0/5 (2 h)
100 mpk oral, 4 h after dosing
  MES @ 100 mpk: (number of mice with full body tonic extension prevented)/(total number of mice tested): 0/5 (4 h)

## NS(=O)(=O)NCc1csc2ccc(Br)cc12 [Compound 15, N-[(5-bromobenzo[b]thien-3-yl)methyl]-sulfamide]
0.5 hr after dosing
  MES @ 300 mpk: (number of mice with full body tonic extension prevented)/(total number of mice tested): 0/3 (0.5 hr)
2 hr after dosing
  MES @ 300 mpk: (number of mice with full body tonic extension prevented)/(total number of mice tested): 0/3 (2 hr)
4 hr after dosing
  MES @ 300 mpk: (number of mice with full body tonic extension prevented)/(total number of mice tested): 1/3 (4 hr)
